Here are results for two molecules from patent US8993612B2, “Modulators of calcium release-activated calcium channel and methods for treatment of non-small cell lung cancer” (Rhizen Pharmaceuticals SA, priority 2009, dated 2015).

The target of one data set is CRAC channels (Homo sapiens (Human), UniProt Q96D31). Briefly: In-vitro CRAC channel inhibition assay in Jurkat cells (thapsigargin-induced calcium influx). The data set is classed as cell-based. On the procedure:
Inhibition of CRAC channels was determined following thapsigargin (Sigma, Cat # T9033) induced endoplasmic calcium release in Jurkat cells. (see Yasurio Yonetoky et. al Bio. & Med. Chem. 14 (2006) 4750-4760). Cells were centrifuged and resuspended in equal volumes ° f Ca^2+ and Mg^2+ free Hanks buffer and Fluo-8 NW dye (ABD Bioquest, Inc., Sunnyvale, Calif.) loading solution at 2×10^5 cells/100 μl/well in 96-well black plate. Plate is incubated at 37° C./5% CO2 for 30 mM followed by further 15 mM incubation at room temperature. Test compounds (DMSO stocks diluted in Ca^2+ and Mg^2+ free Hanks buffer) at desired concentrations were added to the wells and incubated for […]. Thapsigargin (1 μM final concentration) was added to the wells and incubated for 15 min to inhibit the Sarco-endoplasmic reticulum Ca^2+ ATPase pump thereby depleting endoplasmic calcium and raising cytosolic calcium concentrations. Store-operated calcium entry was initiated by adding extracellular Ca^2+ to a final concentration of 1.8 mM. Fluorescence was monitored over […] on a plate reader (BMG Labtech., Germany) with excitation at 485 nm and an emission wavelength at 520 nm. Data were analyzed using GraphPad Prism. IC50 for each compound was determined based on the percent inhibition of thapsigargin-induced calcium influx into cells.

For data set [1], the system named is NCI-H460 cells. Briefly: In-vitro cell proliferation assay in NCI-H460 cancer cell line (MTT). The data set is classed as cell-based, human. The note with it: Homo sapiens, NCI-H460, 48 h, read-out: NCI-H460 Cell line assay G1 50 nM. On the procedure: Growth inhibition assays were carried out using 10% FBS supplemented media. Cells were seeded at a concentration of 5000 cells/well in a 96-well plate. Test compound at a concentration range from 0.01 to 10000 nM were added after 24 h. Growth was assessed using the 3-[4,5-dimethylthiazol-2-yl]-2,5-diphenyltetrazolium bromide (MTT) dye reduction test at 0 h (prior to the addition of the test compound) and 48 h after the addition of test compound. Absorbance was read on a Fluostar Optima (BMG Labtech, Germany) at a wave length of 450 nm. Data were analysed using GraphPad Prism. IC-50 for each compound was determined based on the % inhibition due to the test compound compared to the control.
For methods of cell proliferation assay, see, for example, Mosmann. T., Journal of Immunological Methods, 65(1-2), 55-63, (1983).
The effect of CRAC and/or STIM protein on the proliferation and viability of lung cancer cells was determined as follows.
For Methodology Refer 1C.

A further data set deals with Orai1. As to the kind of experiment: Orai1 mRNA expression in NCI-H460 cells by PCR. The data set is classed as cell-based, human. The following applies: 1 and 10 μM, qualitative PCR. How it is done: (§1) Orai1 and Stim1 expression in non-small cell lung cancer cell lines was confirmed by PCR (polymerase chain reaction). Briefly, 5×10^6 cells treated with desired concentrations of the test article were harvested, pelleted, and resuspended in 1 ml TRI Reagent (Sigma, St. Louis, Mo.) and total RNA was extracted as per the manufacturer's instructions. cDNA was prepared using the First Strand cDNA synthesis and amplified using the following primer pairs:
(§2) Bands were resolved by agarose gel electrophoresis and visualized using SYBR safe DNA gel stain.
(§3) Orai and Stim expressions were measured using the methodology described in Example 1 above in NCI-H460 cells but with 1 and 10 μM of compound B.

The subject of the next data set is Stim1. Briefly: Stim1 mRNA expression in NCI-H460 cells by PCR. In kind it is cell-based, human. The note with it: 1 and 10 μM, qualitative PCR. On the procedure:
as §1, §2, §3

The next data set concerns Stim2. Briefly: Stim2 mRNA expression in NCI-H460 cells by PCR. The data set is classed as cell-based, human. The note with it: 1 and 10 μM, qualitative PCR. How it is done:
as §1, §2, §3

The test system of data set [2] is NCI-H460 cells. As to the kind of experiment: Cytotoxicity in NCI-H460 cells (lactate dehydrogenase assay). The data set is classed as cell-based, human. The note with it: 48 h. On the procedure: Cytotoxicity of a test compound (Compound B) was determined using a lactate dehydrogenase assay kit (Cayman Chemicals, MI) as per the manufacturer's instructions with some minor modifications. Briefly, 20,000 cells/well in complete RPMI-1640 media were seeded in a 96-well tissue culture plate and incubated overnight at 37° C. and 5% CO2. The test compound was added to the wells in triplicate at the desired concentrations. Doxorubicin and/or 1% Triton-X were used as a positive control. After 48 h, the media was removed and assayed for lactate dehydrogenase in a colorimetric assay. Optical density was measured on a microplate reader (BMG Labtech., Germany) at 490 nM. Data were analyzed using Graphpad Prism (Graphpad software; San Diego Calif.).

Data set [3] deals with IL-2. As to the kind of experiment: Inhibition of IL-2 release in human whole blood. The data set is classed as cell-based. The note with it: Concanavalin A + PMA, 20 h, read-out: IC 50 Human Whole Blood IL-2. How it is done: (§4) Inhibition of cytokine IL-2, IL-4, IL-5 and TNF α was determined as described below.
(§5) Freshly collected HWB was diluted with RPMI medium (1:4.5) and added to a 96-well plate. Wells were incubated with desired concentrations of the inhibitor for 15 min. Cytokine release was induced by the addition of Concanavalin A (25 μg/ml)+Phorbol Myristate Acetate (50 ng/ml) for IL-2 & TNFα or with Phytohemagglutinin (5 μg/ml) for IL-4 & IL-5 and incubated at 37° C. in an atmosphere containing […]. Supernatant was collected after 20 h (IL-2 & TNFα) or 48 h (IL-4 & IL-5) for estimation of cytokines by ELISA. Data were analysed using GraphPad Prism. IC50 values for each compound were determined based on the percent inhibition due to the test compound compared to the control.

Data set [4] relates to TNFα. Briefly: Inhibition of TNFα release in human whole blood. In kind it is cell-based. The note with it: Concanavalin A + PMA, 20 h, read-out: IC 50 Human Whole Blood TNFα. On the procedure: as §4, §5
Data set [5] relates to IL-5. As to the kind of experiment: Inhibition of IL-5 release in human whole blood. The following applies: Phytohemagglutinin, 48 h, read-out: IC 50 Human Whole Blood IL-5. In kind it is cell-based. How it is done: as §4, §5
The subject of data set [6] is IL-4. Briefly: Inhibition of IL-4 release in human whole blood. In kind it is cell-based. The note with it: Phytohemagglutinin, 48 h, read-out: IC 50 Human Whole Blood IL-4. How it is done:
as §4, §5

Data set [7] relates to IL-2. As to the kind of experiment: Inhibition of IL-2 release in PBMC. In kind it is cell-based. The following applies: Homo sapiens, Concanavalin A + PMA, 20 h, read-out: IC 50 PBMC IL-2. How it is done:
as §4
as §5, with “PBMC from freshly” for “Freshly”, “were isolated by density gradient using Histopaque” for “was diluted with RPMI medium (1:4.5)”, “seeded in” for “added to”, “Cells” for “Wells”

Data set [8] concerns TNFα. As to the kind of experiment: Inhibition of TNFα release in PBMC. In kind it is cell-based. The note with it: Homo sapiens, Concanavalin A + PMA, 20 h, read-out: IC 50 PBMC TNFα. How it is done: as §4
as §5, with “PBMC from freshly” for “Freshly”, “were isolated by density gradient using Histopaque” for “was diluted with RPMI medium (1:4.5)”, “seeded in” for “added to”, “Cells” for “Wells”

Data set [9] deals with IL-5. As to the kind of experiment: Inhibition of IL-5 release in PBMC. In kind it is cell-based. The following applies: Homo sapiens, Phytohemagglutinin, 48 h, read-out: IC 50 PBMC IL-5. How it is done: as §4
as §5, with “PBMC from freshly” for “Freshly”, “were isolated by density gradient using Histopaque” for “was diluted with RPMI medium (1:4.5)”, “seeded in” for “added to”, “Cells” for “Wells”

The subject of data set [10] is IL-4. Briefly: Inhibition of IL-4 release in PBMC. The data set is classed as cell-based. The note with it: Homo sapiens, Phytohemagglutinin, 48 h, read-out: IC 50 PBMC IL-4. How it is done:
as §4
as §5, with “PBMC from freshly” for “Freshly”, “were isolated by density gradient using Histopaque” for “was diluted with RPMI medium (1:4.5)”, “seeded in” for “added to”, “Cells” for “Wells”

CRAC channels, sequence (Q96D31 whole entry): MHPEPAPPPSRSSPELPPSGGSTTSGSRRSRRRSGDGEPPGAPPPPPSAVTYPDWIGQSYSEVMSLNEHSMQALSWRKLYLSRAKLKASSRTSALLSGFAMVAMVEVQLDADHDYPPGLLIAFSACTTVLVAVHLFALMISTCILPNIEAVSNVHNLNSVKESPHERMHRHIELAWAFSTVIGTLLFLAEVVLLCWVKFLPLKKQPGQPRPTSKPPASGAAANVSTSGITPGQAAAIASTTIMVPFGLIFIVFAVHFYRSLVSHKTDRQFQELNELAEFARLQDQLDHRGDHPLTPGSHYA

`O=C(Cc1ccc2ncccc2c1)Nc1ccc(-n2nc(C3CC3)cc2C2CC2)cc1` [Example 9, N-[4-(3,5-dicyclopropyl-1H-pyrazol-1-yl)phenyl]-2-(quinolin-6-yl)acetamide]: the inhibition at 1 µM at CRAC channels is 100%. The IC50 in the data set with NCI-H460 cells [1] stood at 270 nM. Further, in the data set with Orai1, the “mRNA expression of Orai1” value is “significantly reduced”. For the same molecule, the “mRNA expression of Stim1” value in the data set on Stim1 is on record as “significantly reduced”. Moreover, the “mRNA expression of Stim2” value in the data set with Stim2 is “significantly reduced”. For the same molecule, the “Cytotoxicity (lactate dehydrogenase in the media)” value with NCI-H460 cells [2] was “not cytotoxic”.

On to `O=C(Cn1nnc2ccccc21)Nc1ccc(-n2nc(C(F)(F)F)cc2C2CC2)cc1` [Example 20, 2-(1H-benzo[d][1,2,3]triazol-1-yl)-N-{4-[5-cyclopropyl-3-(trifluoromethyl)-1H-pyrazol-1-yl]phenyl}acetamide], for which the IC50 on CRAC channels was found to be 39.2 nM; with IL-2 [3] it was 40.7 nM; with TNFα [4], 35.6 nM; in the data set on IL-5 [5], 164 nM; in the data set on IL-4 [6], 1230 nM; in the data set on IL-2 [7], 383 nM. For the same molecule, the IC50 in the data set on TNFα [8] is 138 nM; in the data set on IL-5 [9], 149 nM; in the data set with IL-4 [10], 540 nM. Besides, on CRAC channels, the inhibition at 1 µM was 100%.

As a reminder, the inhibition is how much of the control response was suppressed.
